Test results taken from a melting point compilation (Tetko et al.).

Compound | melting point
CN1C(=O)CCC(CO)C1c1cccc(Cl)c1 (stereo not given) | 122 to 124 °C
O=C(c1cccc(Cl)c1)N1CCNCC1 | 96 to 98 °C
O=C(O)c1cc(-c2ccco2)nc2onc(-c3ccco3)c12 | 269 to 271 °C
CN(C)c1ccc(/C=C/C(=O)c2ccc([N+](=O)[O-])cc2)cc1 | 213 to 215 °C
O=C(O)CSc1nccs1 | 151 to 153 °C
COC(=O)c1cc2c(nc1N)CCCC2 | 126 to 128 °C
O=C(O)C1CCCN1c1ncnc2sccc12 (stereo not given) | 211 to 213 °C
O=C(O)/C=C/c1cc2ccccc2o1 | 213 to 215 °C
c1ccc(CN2CCN(Cc3ccccc3)CC2)cc1 | 89 to 91 °C

Further lines, results first:

melting point | Compound
62 to 64 °C | CC(C)(C)OC(=O)Nc1ccncc1C=O
245 to 247 °C | O=C(Nc1ccc(Cl)cn1)Nc1ccccc1C(=O)O
131 to 133 °C | CC(C)OCc1c(C(=O)O)oc2ccccc12
93 to 95 °C | COc1ccc(C(C)=O)cc1CS(=O)CC(=O)O (stereo not given)
56 to 58 °C | CCOC(=O)C(C)(C#N)Cc1ccncc1 (stereo not given)
288 to 290 °C | O=C(Nc1ccc(O)c(C(=O)O)c1)c1cc(Cl)cc(Cl)c1
